Test results as given in article PMC11714206, “Massively Parallel Screening of Toll/Interleukin‐1 Receptor (TIR)‐Derived Peptides Reveals Multiple Toll‐Like Receptors (TLRs)‐Targeting Immunomodulatory Peptides” (Advanced Science, 2024).

Biological target: T1, MyD88^TIR (Homo sapiens, UniProt Q99836)
T1 construct: MyD88 (residues 148–296); 6xHis; made in house; host or cells: E. coli BL21 (DE3)
Assay: T‐Surf phage library (P8 and P3) selection against MyD88^TIR, four rounds, NGS read counts
Assay type: binding
Conditions: for P3_MyD88 Rank (after) / P3_MyD88 Rank (before): P3 library; for P8_MyD88 Rank (after) / P8_MyD88 Rank (before): P8 library; for Population: 4th round of selection against MyD88 TIR, share of NGS reads
Protocol: T‐Surf libraries were screened against the immobilized TIR domains of two major human TLR adaptor proteins, MAL^TIR and MyD88^TIR, allowing cross‐species selection of TIR‐binding motifs with 190 946 TIR‐derived peptides in a single binding assay (Scheme 1). Enriched phage pools from the fourth round of selection were analyzed using NGS after barcoding the peptide‐coding regions of the phage pools.
Phage display screening was performed by coating two wells of a 96‐well plate (Maxisorp, Thermo Fisher Scientific) with 100 µL of 5 µg mL^−1 TIR domains overnight; then, the coated wells were blocked with 200 µL of blocking buffer (0.2% BSA in PBS) and set aside for 1 h at 4 °C with gentle shaking. Next, 100 µL of the phage library was added to the wells and incubated for 1 h at room temperature (RT; 20 – 22 °C) with gentle shaking. The plate was washed four times with PBS containing 0.5% Tween‐20; the bound phages were eluted by adding 100 µL of 100 mM HCl to each well. The elute was neutralized with 10 µL of 1.0 M Tris‐HCl (pH 11.0). E. coli TG1 cells were grown to the log phase (A600 = ≈0.6), and 1 mL of the culture was incubated with 100 µL of the eluted phages for 30 min at 37 °C, with shaking at 200 rpm. Next, 1 µL of M13KO7 helper phages was added, followed by incubation for 45 min at 37 °C, with shaking. Subsequently, the cells were transferred to 25 mL of 2× yeast extract tryptone/carbenicillin/kanamycin medium and incubated overnight at 37 °C with shaking at 200 rpm. The amplified phages were precipitated with 20% PEG‐8000/2.5 M NaCl to be used for the next round of selection.
The naïve T‐Surf libraries in P8 and P3 and the enriched phage pools after four rounds were barcoded for NGS as previously described.^[ [59] ^] Briefly, 5 µL of the phage pool was used as a template for 20 cycles of a 50 µL PCR reaction using […] each of forward and reverse barcoded primers and PrimeSTAR Max DNA Polymerase. The PCR products were purified using Expin Gel SV (GeneAll). The NGS samples were quantified using qPCR, following the qPCR Quantification Protocol Guide (KAPA Library Quantification kits for Illumina Sequencing Platform), and qualified using the TapeStation High Sensitivity D1000 ScreenTape (Agilent Technologies). The indexed libraries were further sequenced by Macrogen (Seoul, Republic of Korea) using the NovaSeq platform (Illumina) with 100 bp paired‐end reads. The reads were demultiplexed by barcodes and filtered for an average Phred quality score of at least 30, followed by trimming the flanking consensus sequences using Cutadapt (version 2.3). Peptide sequence populations were analyzed according to the read counts.

[1] = selection against MyD88 TIR, rank by count after grouping
[2] = selection against MyD88 TIR, rank by count before grouping
[3] = P3_MyD88: rank by count after grouping
[4] = P3_MyD88: rank by count before grouping
[5] = selection against MyD88, rank after grouping
[6] = selection against MyD88, rank before grouping
[7] = 4R selection against MyD88, rank after grouping
[8] = 4R selection against MyD88, rank before grouping
[9] = P8_MyD88: rank by count after grouping
[10] = P8_MyD88: rank by count before grouping
[11] = P8_MyD88 pool: P8 T-Surf phage library
[12] = selection against MyD88, rank by count after grouping
[13] = selection against MyD88, rank by count before grouping
[14] = P8_MyD88: rank by NGS read count after grouping
[15] = P8_MyD88: rank by NGS read count before grouping
[16] = P3_MyD88 pool: P3 T-Surf phage library

T1 sequence (Q99836 148-296): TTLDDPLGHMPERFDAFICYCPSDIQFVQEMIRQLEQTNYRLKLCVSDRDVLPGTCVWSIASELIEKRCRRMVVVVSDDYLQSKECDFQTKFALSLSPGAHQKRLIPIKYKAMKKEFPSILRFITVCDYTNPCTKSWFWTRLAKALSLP

Sequence: SSFREGLWRLLKLNKK
- P3_MyD88 Rank (after) [1]: 266
- P3_MyD88 Rank (before) [2]: 3181

Sequence: SSLREGLWPLLELSKK
- Rank (after) [3]: 94
- Rank (before) [4]: 1214

Sequence: KERPFGAQRAEKWRAALT
- P3_MyD88 Rank (after) [5]: 567
- P3_MyD88 Rank (before) [6]: 3671

Sequence: DPQGHAWTYERHLSVF
- P8_MyD88 Rank (after) [7]: 584
- P8_MyD88 Rank (before) [8]: 2674

Sequence: DPQEQVGICVRLMEAL
- P8_MyD88 Rank (after) [7]: 585
- P8_MyD88 Rank (before) [8]: 3020

Sequence: YTALTNSGFPTFRDHD
- Rank (after) [3]: 171
- Rank (before) [4]: 1662

Sequence: DHHLDLPRGKALTPEILG
- P3_MyD88 Rank (after) [7]: 657
- P3_MyD88 Rank (before) [8]: 2012

Sequence: SELRVVDDGSVSPLVT
- Rank (after) [3]: 182
- Rank (before) [4]: 3029

Sequence: YTALTNIGIHTFRDND
- P3_MyD88 Rank (after) [1]: 223
- P3_MyD88 Rank (before) [2]: 1655

Sequence: NQWRNALTATANLSGC
- Rank (after) [3]: 419
- Rank (before) [4]: 3517

Sequence: YAASPWWFYERVEILG
- P8_MyD88 Rank (after) [7]: 612
- P8_MyD88 Rank (before) [8]: 1716

Sequence: WALDELLTILYAKETM
- P8_MyD88 Rank (after) [7]: 608
- P8_MyD88 Rank (before) [8]: 1468

Sequence: LGYHWIVWEYFVGIDD
- Rank (after) [9]: 421
- Rank (before) [10]: 3244

Sequence: YYDSRWALDELLKILYANETM
- Rank (after) [9]: 171
- Rank (before) [10]: 192
- Population [11]: 0.00617%

Sequence: YAASPWWFDDIQQIQLFWD
- P8_MyD88 Rank (after) [5]: 543
- P8_MyD88 Rank (before) [6]: 1720

Sequence: CALDELLHILHARELF
- P8_MyD88 Rank (after) [12]: 724
- P8_MyD88 Rank (before) [13]: 1346

Sequence: GNDVLGRKGLRVGSKD
- Rank (after) [3]: 437
- Rank (before) [4]: 1875

Sequence: WALGELLQILQARERC
- Rank (after) [14]: 943
- Rank (before) [15]: 1408

Sequence: ALLKKLDSGFSEEKLL
- P3_MyD88 Rank (after) [1]: 267
- P3_MyD88 Rank (before) [2]: 1950

Sequence: PSEVRKQTGSLAKALRRNCC
- P3_MyD88 Rank (after) [1]: 254
- P3_MyD88 Rank (before) [2]: 1130

Sequence: DWEWDYRLPNLEGPAC
- P8_MyD88 Rank (after) [12]: 745
- P8_MyD88 Rank (before) [13]: 2487

Sequence: KNLFNELVSKNIRTL
- Rank (after) [3]: 103
- Rank (before) [4]: 542

Sequence: NQWRNALTAAANLA
- Population [16]: 0.00291%

Sequence: DPQDQDWVYERLVSLF
- Rank (after) [14]: 936
- Rank (before) [15]: 2966

Sequence: DLQDVGWFLSKLSQHI
- Rank (after) [9]: 172
- Rank (before) [10]: 203

Sequence: YAASPWWFDELVHILW
- P8_MyD88 Rank (after) [12]: 678
- P8_MyD88 Rank (before) [13]: 1722

Sequence: NELVHVWSSKANTWW
- P3_MyD88 Rank (after) [7]: 628
- P3_MyD88 Rank (before) [8]: 3431

Sequence: WALNELQKILNAKETI
- Rank (after) [14]: 900
- Rank (before) [15]: 1553

Sequence: KEVEGWRGALTKKASL
- P3_MyD88 Rank (after) [7]: 626
- P3_MyD88 Rank (before) [8]: 3614

Sequence: YGHESEIIKEIVDTIV
- Population [16]: 0.00262%

Sequence: DPQDLHGIYERLVILF
- P8_MyD88 Rank (after) [7]: 666
- P8_MyD88 Rank (before) [8]: 2903

Sequence: SAAYGDYWVRQIRMIE
- Rank (after) [9]: 469
- Rank (before) [10]: 3707

Sequence: GSFRESLWRLLELSKK
- Rank (after) [3]: 465
- Rank (before) [4]: 1859

Sequence: LFWANLRAALQGDLPY
- Rank (after) [9]: 130
- Rank (before) [10]: 143
- Population [11]: 0.0116%

Sequence: DPQELGWFYERPFSQM
- P8_MyD88 Rank (after) [5]: 554
- P8_MyD88 Rank (before) [6]: 2981

Sequence: WDFASNMEQFWDRLLYA
- P8_MyD88 Rank (after) [12]: 711
- P8_MyD88 Rank (before) [13]: 1610

Sequence: PSDVRKKTGSLAKAFA
- P3_MyD88 Rank (after) [1]: 285
- P3_MyD88 Rank (before) [2]: 2735

Sequence: QDLGWFYERLVSLF
- P8_MyD88 Rank (after) [7]: 590
- P8_MyD88 Rank (before) [8]: 3565

Sequence: WDFAGNWEQFWDRLSY
- P8_MyD88 Rank (after) [12]: 772
- P8_MyD88 Rank (before) [13]: 1576

Sequence: NQQRFGGKVDAWKAAL
- P3_MyD88 Rank (after) [1]: 281
- P3_MyD88 Rank (before) [2]: 3542
